{"source": "patent US20100203114A1", "about": "“MICELLE ENCAPSULATION OF THERAPEUTIC AGENTS” (WARF - Wisconsin Alumni Research Foundation, priority 2007, published 2010)", "key": {"[1]": {"details": "cited from earlier work"}, "MCF-7": {"tested_on": "MCF-7", "details": "reported by the National Cancer Institute; cited from earlier work"}, "[2]": {"tested_on": "MCF-7 human breast cancer cells", "assay": "In vitro cytotoxicity, resazurin dye", "format": "cell-based", "details": "MCF7, 72 hours", "description": "(§1) In vitro cytotoxicity studies. […] Cell lines were plated in 96-well plates at an initial density of 3000 cells per well in 90 μL of appropriate media, and maintained at 37° C. under a 5% CO2 atmosphere. […] Drug-loaded micelles or micelles alone were formulated in MilliQ water (following dialysis of DMSO to form the micelles). It was not necessary to dilute the samples further before addition to wells. […] Following, the metabolic rate of cells was determined by using resazurin dye (Sigma-Aldrich)."}, "[3]": {"tested_on": "PC-3 human prostate cells", "assay": "In vitro cytotoxicity, resazurin dye", "format": "cell-based", "details": "Prostate cell, 72 hours", "description": "as §1"}, "[4]": {"details": "dogs; cited from earlier work"}, "[5]": {"assay": "17-AAG loading in PEG-PLA micelles prepared by dialysis (HPLC)", "format": "physicochemical", "description": "Preparation and characterization of drug loaded PEG-PLA micelles. […] For example, 5 mg of 17-AAG and 45 mg of PEG-PLA (10:90 w/w) were dissolved in 10 mL DMAc. The resulting solution was dialyzed against H2O in 3500 MWCO tubing (SpectraPor). Resulting micelles were centrifuged at 5000 g's for 10 min to precipitate unincorporated drug. […] Micelle solutions were concentrated by rotary evaporation at reduced pressure at room temperature, followed by centrification (5000 g's for 10 minutes).\nThe loading experiments were investigated at 10% w/w to evaluate the suitability of PEG-PLA micelles for solubilizing 17-AAG."}}, "note": "Like-named read-outs stand apart in the source and are kept apart here."}
{"smiles": "C=CCNC1=C2C[C@@H](C)C[C@H](OC)[C@H](O)[C@@H](C)/C=C(\\C)[C@H](OC(N)=O)[C@@H](OC)/C=C\\C=C(/C)C(=O)NC(=CC1=O)C2=O", "note": "[17-AAG, 17-allylamino-17-demethoxygeldanamycin]", "values": [{"measurement": "solubility of 17-AAG", "setting": "[1]; according to the National Cancer Institute", "value": "~10", "unit": "µg/mL"}, {"measurement": "aqueous solubility", "setting": "[1]", "value": "about 0.1 mg/mL"}, {"measurement": "water solubility", "setting": "[1]; neutral pH", "value": "about 0.1 mg/mL"}, {"measurement": "IC50", "setting": "MCF-7", "value": 12.6, "unit": "nM"}, {"measurement": "IC50", "setting": "[2]; n = 6, read-out: MCF-7 IC50", "value": "22 ± 14", "unit": "nM"}, {"measurement": "IC50", "setting": "[2]; read-out: IC50 in MCF-7", "value": "22 ± 14", "unit": "nM"}, {"measurement": "IC50", "setting": "[3]; n = 6, read-out: PC-3 IC50", "value": "74 ± 14", "unit": "nM"}, {"measurement": "IC50", "setting": "[3]; read-out: IC50 in PC-3", "value": "74 ± 14", "unit": "nM"}, {"measurement": "maximum tolerated dose", "setting": "[4]", "value": "100-200 mg/m^2/day"}, {"measurement": "mol 17-AAG:mol PEG-PLA", "setting": "[5]; 0.3 mM PEG-PLA solution", "value": "0.73±0.09"}, {"measurement": "17-AAG solubilized", "setting": "[5]; 0.3 mM PEG-PLA solution, initial 17-AAG 0.45 mg/mL (11.4% w/w)", "value": "0.083 ± 0.012", "unit": "mg/mL"}, {"measurement": "17-AAG loaded", "setting": "[5]; 0.3 mM PEG-PLA, weight 17-AAG versus total weight of carrier", "value": "0.024 ± 0.003", "unit": "mg/mg"}, {"measurement": "17-AAG loading efficiency", "setting": "[5]; PEG-PLA (12:6 kDa) micelles", "value": "19±3", "unit": "% w/w"}, {"measurement": "drug loading", "setting": "[5]; PEG-PLA (12:12 kDa) micelles, with and without alpha-tocopherol", "value": "< 0.5", "unit": "mg/mL"}, {"measurement": "time after which drug precipitated out of solution", "setting": "[5]; micelles incorporating 1:1 alpha-tocopherol to drug, even at 4° C.", "value": "4 to 5", "unit": "h"}, {"measurement": "Efficiency", "setting": "[5]; total drug solubilized versus initial drug concentration", "value": "19 ± 3", "unit": "% loaded"}]}
{"smiles": "CO[C@H]1/C=C\\C=C(/C)C(=O)NC2=CC(=O)C(NCCN(C)C)=C(C[C@@H](C)C[C@H](OC)[C@H](O)[C@@H](C)/C=C(\\C)[C@@H]1OC(N)=O)C2=O", "note": "[17-DMAG, 17-dimethylamino-ethylamino-17-demethoxygeldanamycin]", "values": [{"measurement": "maximum tolerated dose", "setting": "[4]", "value": 8, "unit": "mg/m^2/day"}]}
